Data as given in patent US9512139B2, “Conformationally constrained, fully synthetic macrocyclic compounds” (POLYPHOR AG, priority 2009, dated 2016).
Like-named read-outs stand apart in the source and are kept apart here.

Tests used:
[1] = Metabolic stability assay, human microsomes; format: in vitro ADME; conditions: for half-life at 10 µM: both sexes
[2] = Metabolic stability assay, CD-1 mouse microsomes; format: in vitro ADME; conditions: for half-life at 10 µM: both sexes
[3] = amide bond
in vitro [4] = format: in vitro ADME, mouse
in vitro [5] = format: in vitro ADME, human
[6] = Metabolic stability assay, rat microsomes (values in parentheses); format: in vitro ADME; conditions: value in parentheses
[7] = both, human, microsomes, 1 h, 10 µM
[8] = both, CD-1, mouse, microsomes, 1 h, 10 µM
[9] = both, CD-1, mouse, plasma, 10 µM
[10] = both, CD-1, mouse, plasma, 4 h, 10 µM
[11] = both, CD-1, mouse, microsomes, 10 µM
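Wherever Plasma Stability 240 min mouse [% remain.] is given: sodium citrate stabilized mouse plasma, parent compound quantified by HPLC/MS/MS relative to its peak area at time zero, run in triplicate.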
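Wherever Plasma Stability T½ [min] mouse is given: sodium citrate stabilized mouse plasma, parent compound quantified by HPLC/MS/MS relative to its peak area at time zero, run in triplicate.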

Row | Structure (SMILES) | half-life at 10 µM ([1]; human, microsomes) | Metabolic Stability 60 min hum [% remain.] [1, 7] | Metabolic Stability 60 min mouse [% remain.] [2, 8] | Plasma Stability T½ [min] mouse (in vitro [4]; [9]) | Plasma Stability 240 min mouse [% remain.] (in vitro [4]; [10]) | Plasma Stability T½ [min] hum (in vitro [5]; human, plasma, 10 µM) | Plasma Stability 240 min hum [% remain.] (in vitro [5]; human, plasma, 4 h, 10 µM) | Metabolic Stability T½ [min] hum ([1]; both, human, microsomes, 10 µM) | Metabolic Stability 60 min (rat) [% remain.] [6] | Metabolic Stability T½ [min] (rat) [6] | Metabolic Stability T½ [min] mouse [2, 11] | other results
1 | CN1CCC[C@H](NC(=O)OCc2ccccc2)C(=O)N[C@@H]2C[C@@H](COc3ccc(F)cc3C1=O)N(C(=O)OC(C)(C)C)C2 [Ex. 403, tert-butyl (1S,15S,18R)-15-{[(benzyloxy)carbonyl]amino}-7-fluoro-11-methyl-10,16-dioxo-3-oxa-11,17,20-triazatricyclo[16.2.1.0^4,9]henicosa-4,6,8-triene-20-carboxylate] | 36 min | 37 % remain. | 55 % remain. | > 240 min | 65 % remain. | > 240 min | 100 % remain. |  |  |  |  | half-life at 10 µM ([2]; CD-1, mouse, microsomes): 57 min; ring closure, yield of all isomers ([3]; from CN(CCC[C@H](NC(=O)OCc1ccccc1)C(=O)O)C(=O)c1cc(F)ccc1OC[C@@H]1C[C@@H](N)CN1C(=O)OC(C)(C)C, FDPP, DMF, 1.0 mM): 73%
2 | CN1CCC[C@H](NC(=O)Cc2ccccc2)C(=O)N[C@H]2CN[C@H](COc3ccc(F)cc3C1=O)C2 [Ex. 406, N-[(1S,15S,18R)-7-fluoro-11-methyl-10,16-dioxo-3-oxa-11,17,20-triazatricyclo[16.2.1.0^4,9]henicosa-4,6,8-trien-15-yl]-2-phenylacetamide] |  | 77 % remain. | 94 % remain. | > 240 min | 89 % remain. | > 240 min | 75 % remain. | > 60 min | 96 % remain. | 60 (60) min | > 60 min | 
3 | CN1C[C@H](NC(=O)OCc2ccccc2)C(=O)N(C)CC(=O)N2C[C@@H](NC(=O)OC(C)(C)C)C[C@H]2COc2cncc(c2)C1=O [Ex. 272, benzyl N-[(4S,6S,13S)-6-[(tert-butoxycarbonyl)amino]-11,15-dimethyl-9,12,16-trioxo-2-oxa-8,11,15,19-tetraazatricyclo[15.3.1.0^4,8]henicosa-1(21),17,19-trien-13-yl]carbamate] |  | 65 % remain. | 81 % remain. | > 240 min | 92 % remain. | > 240 min | 95 % remain. | > 60 min |  |  | > 60 min | ring closure, yield of all isomers ([3]; from CNCC(=O)N1C[C@@H](NC(=O)OC(C)(C)C)C[C@H]1COc1cncc(C(=O)N(C)C[C@H](NC(=O)OCc2ccccc2)C(=O)O)c1, T3P, i-Pr2NEt, CH2Cl2, 9.75 mM): 38%
4 | CN1CCC[C@H](N)C(=O)N2C[C@@H](OCc3ccc(-c4ccccc4)cc3)C[C@H]2COc2cccc(c2)C1=O [Ex. 570, (4S,65,10S)-10-amino-6-([1,1′-biphenyl]-4-ylmethoxy)-14-methyl-2-oxa-8,14-diazatricyclo[14.3.1.0^4,8]icosa-1(20),16,18-triene-9,15-dione] |  |  |  |  |  |  |  |  | 76 % remain. | 60 (60) min |  | Metabolic Stability 60 min hum [% remain.] ([1]; human microsomes, 60 min): 20 % remain.; Metabolic Stability T½ [min] hum ([1]; human, microsomes): 13 min; Metabolic Stability 60 min mouse [% remain.] ([2]; mouse microsomes, 60 min): 69 % remain.; Metabolic Stability T½ [min] mouse ([2]; mouse, microsomes): > 60 min; Plasma Stability 240 min mouse [% remain.] (in vitro [4]; mouse plasma, 240 min): 100 % remain.; Plasma Stability T½ [min] mouse (in vitro [4]; mouse, plasma): > 240 min; Plasma Stability 240 min hum [% remain.] (in vitro [5]; human plasma, 240 min): 92 % remain.; Plasma Stability T½ [min] hum (in vitro [5]; human, plasma): > 240 min
5 | CO[C@H]1C[C@H]2COc3cccc(c3)C(=O)N(C)CCC[C@H](NC(=O)CC(C)(C)C)C(=O)N2C1 [Ex. 572, N-[(4S,6S,10S)-6-methoxy-14-methyl-9,15-dioxo-2-oxa-8,14-diazatricyclo[14.3.1.0^4,8]icosa-1(20),16,18-trien-10-yl]-3,3-dimethylbutanamide] | 54 min | 49 % remain. | 54 % remain. | > 240 min | 100 % remain. | > 240 min | 85 % remain. |  | 92 % remain. | 60 (60) min | > 60 min | 
6 | CN1CCC[C@H](NCC(C)(C)C)C(=O)N2C[C@@H](Oc3ccccc3)C[C@H]2COc2cccc(c2)C1=O [Ex. 563, (4S,6S,10S)-14-methyl-10-(neopentylamino)-6-phenoxy-2-oxa-8,14-diazatricyclo[14.3.1.0^4,8]icosa-1(20),16,18-triene-9,15-dione] | 8 min | 1 % remain. | 4 % remain. | > 240 min | 81 % remain. | > 240 min | 88 % remain. |  | 32 % remain. |  |  | half-life at 10 µM ([6]; read-out: Metabolic Stability T½ [min] (rat)): 31 min; half-life at 10 µM ([2]; CD-1, mouse, microsomes): 12 min
7 | CN1CCC[C@H](NC(=O)Cc2ccccc2)C(=O)N2C[C@@H](O)C[C@H]2COc2cccc(c2)C1=O [Ex. 574, N-[(4S,6S,10S)-6-hydroxy-14-methyl-9,15-dioxo-2-oxa-8,14-diazatricyclo[14.3.1.0^4,8]icosa-1(20),16,18-trien-10-yl]-2-phenylacetamide] |  | 94 % remain. | 93 % remain. | > 240 min | 95 % remain. | > 240 min | 91 % remain. | > 60 min | 92 % remain. | 60 (60) min | > 60 min | 
8 | C[C@H]1C(=O)NCCC(=O)N2C[C@H](NC(=O)c3ccccc3)C[C@H]2COc2cccc(c2)C(=O)N1C |  |  |  |  |  |  |  |  |  |  |  | ring closure, yield of all isomers ([3]; from *CNC(=O)CCCOc1cc(OC)c(CN(C(=O)c2ccccc2)[C@@H]2C[C@@H](COc3cccc(C(=O)N(C)[C@@H](C)C(=O)O)c3)N(C(=O)CCN)C2)c(OC)c1, FDPP, i-Pr2NEt, DMF, 67.0 mM, 30.0 h, 7 steps): 16%
